ChEMBL document CHEMBL5038661, “Identification of a Novel 2,8-Diazaspiro[4.5]decan-1-one Derivative as a Potent and Selective Dual TYK2/JAK1 Inhibitor for the Treatment of Inflammatory Bowel Disease” (J Med Chem, 2022)

Tests used:
[1] = human, microsomes
[2] = in vivo; conditions: Sprague-Dawley, rat, po, 5 mg/kg
[3] = in vivo; conditions: Sprague-Dawley, rat, po, 5 mg/kg; remark: listed apart in the source
[4] = in vivo; conditions: Sprague-Dawley, rat, po, 5 mg/kg; remark: listed apart in the source
[5] = in vivo; conditions: Sprague-Dawley, rat, po, 5 mg/kg; remark: listed apart in the source
[6] = in vivo; conditions: Sprague-Dawley, rat, po, 5 mg/kg; remark: listed apart in the source

| SMILES | Stability [1] | CL/F at 24 h [2] | Cmax at 24 h [3] | bioavailability at 24 h [4] | AUC(0-t) [5] | half-life at 24 h [6] |
| --- | --- | --- | --- | --- | --- | --- |
| [2H]C([2H])([2H])n1cc(Nc2ncc(C)c(N3CCC4(CCNC4=O)CC3)n2)cn1 | Unstable | – | – | – | – | – |
| Cc1cnc(Nc2cnn(C)c2)nc1N1CCC2(CCNC2=O)CC1 | Stable | 41.5 mL/min/kg | 415 ng/mL | 59.3% | 2100 ng·h/mL | 2.8 h |
